Measured values reported in PMC12948427 (The Journal of Clinical Investigation, 2025).
Values joined by “and” are separate entries in the source; they are usually repeats but may differ in a detail not shown here. Equal values may be shown once. Read-outs that look alike come from different tables or passages of the source. Ends that are not written are not given here.

Assays:
SARS-CoV-2 Omicron BA.5 = assay type: in vivo, K18-hACE2 C57BL/6 mice
MHV [1] = assay type: cell-based, mouse hepatitis virus (MHV); conditions: RTB 0 uM
MHV [2] = system: MHV; design: species or system C57BL/6JGpt mice; conditions: in vivo
in vitro [3] = conditions: mouse, 17Cl-1 cells, cell viability, Figure S7E
in vitro [4] = conditions: Vero E6 cells, cell viability, Figure S7F
in vitro [5] = conditions: human, Calu-3 cells, cell viability, Figure S7G

CC(C)C(=O)OC[C@H]1O[C@@H](n2ccc(NO)nc2=O)[C@H](O)[C@@H]1O [Molnupiravir]
Survival curves: per-mouse event code (SARS-CoV-2 Omicron BA.5; mouse, in vivo): 0 | body weight relative to start (Figure 5N) (SARS-CoV-2 Omicron BA.5; mouse, in vivo): 100 | pathological severity scores, lung tissues (SARS-CoV-2 Omicron BA.5; mouse, in vivo): 2 and 1 | body weight relative to start (Figure 5N) (SARS-CoV-2 Omicron BA.5; time 3): 98.8156 and 99.095 and 100.646 and 100.079 and 100.862 and 100.376 and 98.4711 and 101.287 | body weight relative to start (Figure 5N) (SARS-CoV-2 Omicron BA.5; time 5): 100.79 and 100.302 and 100.727 and 102.248 and 100.911 and 101.609 and 100.096 and 100.919 | body weight relative to start (Figure 5N) (SARS-CoV-2 Omicron BA.5; time 8): 102.338 and 103.472 and 103.062 and 103.016 and 101.448 and 100.239 and 100.322 | body weight relative to start (Figure 5N) (SARS-CoV-2 Omicron BA.5; time 10): 102.338 and 103.472 and 103.062 and 103.016 and 101.448 and 100.239 and 100.322 | Inhibition, combination matrix (Figure S12C) (MHV [1]; Molnupiravir 0.01 uM): -6.464 | Inhibition, combination matrix (Figure S12C) (MHV [1]; Molnupiravir 0.03 uM): -1.441 | Inhibition, combination matrix (Figure S12C) (MHV [1]; Molnupiravir 0.1 uM): -1.4813 | Inhibition, combination matrix (Figure S12C) (MHV [1]; Molnupiravir 0.3 uM): 3.455 | Inhibition, combination matrix (Figure S12C) (MHV [1]; Molnupiravir 1 uM): 0.7848 | Inhibition, combination matrix (Figure S12C) (MHV [1]; Molnupiravir 3 uM): 9.711 | Inhibition, combination matrix (Figure S12C) (MHV [1]; Molnupiravir 10 uM): 41.7804 | Inhibition, combination matrix (Figure S12C) (MHV [1]; Molnupiravir 25 uM): 66.457

CC(C)(C)[C@H](NC(=O)C(F)(F)F)C(=O)N1C[C@H]2[C@@H]([C@H]1C(=O)N[C@H](C#N)C[C@@H]1CCNC1=O)C2(C)C [nirmatrelvir]
Inhibition, combination matrix (Figure S12D) (MHV [1]; nirmatrelvir 0.01 uM): -1.274 | Inhibition, combination matrix (Figure S12D) (MHV [1]; nirmatrelvir 0.03 uM): 3.148 | Inhibition, combination matrix (Figure S12D) (MHV [1]; nirmatrelvir 0.1 uM): 7.328 | Inhibition, combination matrix (Figure S12D) (MHV [1]; nirmatrelvir 0.3 uM): 49.1912 | Inhibition, combination matrix (Figure S12D) (MHV [1]; nirmatrelvir 1 uM): 73.8207 | Inhibition, combination matrix (Figure S12D) (MHV [1]; nirmatrelvir 3 uM): 76.6195 | Inhibition, combination matrix (Figure S12D) (MHV [1]; nirmatrelvir 10 uM): 79.1661 | Inhibition, combination matrix (Figure S12D) (MHV [1]; nirmatrelvir 25 uM): 76.9584

GAIRLHGRLIVAGIVLESEQPPRRRQRRKKRG (also: D-retroinverso) [M161-DRI, M161 modified with d-retroinverso (DRI) isoform]
readout per mouse, Figure S8P (quantity not given) (MHV [2]): 70 and 160 and 190 and 40 and 290 and 100 | score per mouse, Figure S8Q (MHV [2]): 1 and 0 | lung injury (histology) (MHV [2]; mouse, iv, 15 mg/kg): alleviated | viral gRNA in the lung (MHV [2]; mouse, iv, 15 mg/kg): significantly decreased | virus titer in the lung (plaque assay) (MHV [2]; mouse, iv, 15 mg/kg): significantly decreased

GRKKRRQRRRPPQDYKDDDDK [FLAG]
viability at 24 h (in vitro [3]; peptide concentration 1000): 99.7% | viability at 24 h (in vitro [3]; peptide concentration 4000): 102% | viability at 24 h (in vitro [3]; peptide concentration 8000): 98% | viability at 24 h (in vitro [3]; peptide concentration 10000): 97.5% | viability at 24 h (in vitro [3]; peptide concentration 20000): 94% | viability at 24 h (in vitro [3]; peptide concentration 40000): 78.8% | viability at 24 h (in vitro [3]; peptide concentration 60000): 98.4% | viability at 24 h (in vitro [3]; peptide concentration 80000): 84.5% | viability at 24 h (in vitro [3]; peptide concentration 100000): 88.8% | viability at 24 h (in vitro [3]; peptide concentration 200000): 84.9% | cell viability, Figure S7E (17Cl-1 cells; peptide concentration 1000): 98.8246 and 101.437 | cell viability, Figure S7E (17Cl-1 cells; peptide concentration 4000): 100.566 and 104.919 | cell viability, Figure S7E (17Cl-1 cells; peptide concentration 8000): 94.9064 | cell viability, Figure S7E (17Cl-1 cells; peptide concentration 10000): 94.471 and 89.2468 | cell viability, Figure S7E (17Cl-1 cells; peptide concentration 20000): 89.6822 | cell viability, Figure S7E (17Cl-1 cells; peptide concentration 40000): 87.0701 and 87.9408 | cell viability, Figure S7E (17Cl-1 cells; peptide concentration 60000): 91.4236 and 94.9064 | cell viability, Figure S7E (17Cl-1 cells; peptide concentration 80000): 90.9882 and 92.2943 | cell viability, Figure S7E (17Cl-1 cells; peptide concentration 100000): 101.001 and 93.6003 | cell viability, Figure S7E (17Cl-1 cells; peptide concentration 200000): 85.764 | viability at 24 h (in vitro [4]; peptide concentration 1000): 94.8% | viability at 24 h (in vitro [4]; peptide concentration 2000): 101% | viability at 24 h (in vitro [4]; peptide concentration 4000): 102% | viability at 24 h (in vitro [4]; peptide concentration 6000): 106% | viability at 24 h (in vitro [4]; peptide concentration 8000): 102% | viability at 24 h (in vitro [4]; peptide concentration 10000): 105% | viability at 24 h (in vitro [4]; peptide concentration 50000): 102% | viability at 24 h (in vitro [4]; peptide concentration 100000): 105% | viability at 24 h (in vitro [4]; peptide concentration 400000): 95.8% | viability at 24 h (in vitro [4]; peptide concentration 800000): 101% | cell viability, Figure S7F (Vero E6 cells; peptide concentration 1000): 96.8531 and 94.4056 | cell viability, Figure S7F (Vero E6 cells; peptide concentration 2000): 104.196 and 103.846 | cell viability, Figure S7F (Vero E6 cells; peptide concentration 4000): 104.895 | cell viability, Figure S7F (Vero E6 cells; peptide concentration 6000): 106.643 and 105.594 | cell viability, Figure S7F (Vero E6 cells; peptide concentration 8000): 101.049 and 100.35 | cell viability, Figure S7F (Vero E6 cells; peptide concentration 10000): 105.594 | cell viability, Figure S7F (Vero E6 cells; peptide concentration 50000): 101.049 and 103.497 | cell viability, Figure S7F (Vero E6 cells; peptide concentration 400000): 94.0559 and 93.7063 | cell viability, Figure S7F (Vero E6 cells; peptide concentration 800000): 102.448 | viability at 24 h (in vitro [5]; peptide concentration 1000): 92% | viability at 24 h (in vitro [5]; peptide concentration 5000): 88.6% | viability at 24 h (in vitro [5]; peptide concentration 10000): 92% | viability at 24 h (in vitro [5]; peptide concentration 20000): 89% | viability at 24 h (in vitro [5]; peptide concentration 40000): 93.4% | viability at 24 h (in vitro [5]; peptide concentration 60000): 90.5% | viability at 24 h (in vitro [5]; peptide concentration 80000): 94.5% | viability at 24 h (in vitro [5]; peptide concentration 100000): 94.2% | viability at 24 h (in vitro [5]; peptide concentration 400000): 100% | viability at 24 h (in vitro [5]; peptide concentration 800000): 96.8% | cell viability, Figure S7G (Calu-3 cells; peptide concentration 1000): 98.6281 and 97.5158 | cell viability, Figure S7G (Calu-3 cells; peptide concentration 5000): 94.1787 and 96.4034 | cell viability, Figure S7G (Calu-3 cells; peptide concentration 10000): 96.4034 and 97.8865 | cell viability, Figure S7G (Calu-3 cells; peptide concentration 20000): 94.9203 and 96.4034 | cell viability, Figure S7G (Calu-3 cells; peptide concentration 40000): 95.6618 and 97.5158 | cell viability, Figure S7G (Calu-3 cells; peptide concentration 60000): 97.5158 and 96.0326 | cell viability, Figure S7G (Calu-3 cells; peptide concentration 80000): 96.4034 | cell viability, Figure S7G (Calu-3 cells; peptide concentration 100000): 97.8865 | cell viability, Figure S7G (Calu-3 cells; peptide concentration 400000): 98.6281 and 97.5158 | cell viability, Figure S7G (Calu-3 cells; peptide concentration 800000): 99.7405 and 96.0326
